Measurements taken from patent US20220119375A1, “3-ARYLOXY-3-ARYL-PROPYLAMINE COMPOUND AND USES THEREOF” (Zhangzhou Pien Tze Huang Pharmaceutical Co., Ltd., priority 2018, published 2022).
Like-named read-outs stand apart in the source and are kept apart here.

Columns and labels:
TRPA1 = biological target: T1, TRPA1 (Mus musculus, UniProt Q8BLA8); assay: IonWorks Barracuda (IWB) automated patch clamp detection of TRPA1 inhibitory activity; type: cell-based, mouse (mTRPA1); conditions: automated patch clamp (IWB)
T1 construct: expressed in transfected cells; host or cells: HEK293
T1 sequence (Q8BLA8 whole entry): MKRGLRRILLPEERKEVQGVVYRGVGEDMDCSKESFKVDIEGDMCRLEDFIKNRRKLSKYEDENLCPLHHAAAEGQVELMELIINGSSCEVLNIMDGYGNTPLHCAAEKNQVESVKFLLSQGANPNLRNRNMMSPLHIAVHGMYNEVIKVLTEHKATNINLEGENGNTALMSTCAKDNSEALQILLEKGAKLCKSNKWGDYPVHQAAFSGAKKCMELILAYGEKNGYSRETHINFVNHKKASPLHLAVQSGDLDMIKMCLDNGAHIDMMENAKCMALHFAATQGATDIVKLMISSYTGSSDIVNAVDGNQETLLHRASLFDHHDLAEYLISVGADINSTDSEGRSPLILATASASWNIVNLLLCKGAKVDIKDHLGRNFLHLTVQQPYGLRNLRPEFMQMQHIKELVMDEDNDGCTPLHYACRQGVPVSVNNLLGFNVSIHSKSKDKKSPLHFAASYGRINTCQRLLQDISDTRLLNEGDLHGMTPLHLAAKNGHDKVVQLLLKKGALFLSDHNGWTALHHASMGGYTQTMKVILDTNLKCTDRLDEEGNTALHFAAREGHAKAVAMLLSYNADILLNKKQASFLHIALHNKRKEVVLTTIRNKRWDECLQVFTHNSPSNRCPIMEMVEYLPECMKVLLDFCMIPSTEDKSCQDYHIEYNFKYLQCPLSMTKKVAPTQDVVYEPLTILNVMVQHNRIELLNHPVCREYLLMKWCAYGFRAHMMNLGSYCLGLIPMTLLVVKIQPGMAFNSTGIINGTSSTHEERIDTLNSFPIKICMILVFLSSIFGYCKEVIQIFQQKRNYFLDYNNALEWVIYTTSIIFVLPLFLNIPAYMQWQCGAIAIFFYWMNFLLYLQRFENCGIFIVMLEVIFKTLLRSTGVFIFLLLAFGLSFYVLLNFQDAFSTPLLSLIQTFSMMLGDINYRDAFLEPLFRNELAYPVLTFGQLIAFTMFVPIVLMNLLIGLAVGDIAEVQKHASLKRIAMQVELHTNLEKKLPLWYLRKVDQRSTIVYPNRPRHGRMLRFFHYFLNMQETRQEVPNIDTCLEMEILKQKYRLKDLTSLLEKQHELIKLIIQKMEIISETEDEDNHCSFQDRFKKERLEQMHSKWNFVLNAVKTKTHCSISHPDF
Protocol: The inhibitory activity of some compounds in the Examples of present invention on transient receptor potential channel protein TRPA1 was tested in this example. The compound of formula A (WO2010075353) was used as a positive control compound: […]
IonWorks Barracuda (IWB) automated patch clamp detection was used as test method: HEK293 cells stably expressing TRPA1 were placed in DMEM medium containing 15 μg/mL Blasticidin S HCl, 200 μg/mL Hygromycin B and 10% FBS in the T175 culture flask, and cultured in 37° C., 5% CO2 incubator. When the cell density reached about 80%, the culture medium was removed, rinsed with phosphate buffered saline (PBS) without calcium and magnesium. 3 mL of Trypsin was added to digest for 2 min, 7 mL of culture medium was added to terminate the digestion. The cells were collected to 15 mL centrifuge tube and centrifuged at 800 rpm for 3 min. After the supernatant was removed, the cells were added to appropriate volume of extracellular fluid for re-suspending, and the cell density was controlled at 2-3×10^6/mL for IWB experiment. Extracellular fluid formulation (in mM): 140 NaCl, 5 KCl, 1 MgCl2, 10 HEPES, 0.5 EGTA, 10 Glucose (pH 7.4); intracellular fluid formulation (in mM): 140 CsCl, 10 HEPES, 5 EGTA, 0.1 CaCl2, 1 MgCl2 (pH 7.2). 28 mg/mL of amphotericin B was freshly prepared with DMSO on the day of experiment, and then final concentration of 0.1 mg/mL was prepared with intracellular fluid.
Population patch clamp (PPC) plate was used in IWB experiment. The entire detection process was automatically carried out by the instrument. Extracellular fluid was added into 384 wells of PPC plate, and 6 µL of the intracellular fluid was added into plenum (under the PPC plate), 6 µL of cell fluid was added for sealing test, and finally the intracellular fluid in plenum was replaced with amphotericin B-containing intracellular fluid to establish a whole-cell recording mode after perforating sealed cells. The sampling frequency for recording TPRA1 current was 10 kHz, the cells were clamped at 0 mV, the voltage stimulation command (channel protocol) was a ramp voltage from −100 mV to +100 mV for 300 ms. This voltage stimulation was applied every 10 s, mTRPA1 current was induced by 300 µM AITC.
Data recording and current amplitude measurement export were carried out by IWB software (version 2.5.3, Molecular Devices Corporation, Union City, Calif.). No statistics was recorded for holes with sealing impedance lower than 20 MΩ. The original current data was corrected by software for leakage reduction. TRPA1 current amplitude was measured at +100 mV. […] If IC50 value of HC030031 exceeded 3 times the average IC50 value previously obtained on each plate, it would be re-tested. The dose-effect curve of compounds and IC50 were fitted and calculated by GraphPad Prism 5.02 (GraphPad Software, San Diego, Calif.).

C57BL/6 mice, ICS model = assay: mice ICS model (fibromyalgia), mechanical allodynia test; type: in vivo, mouse; conditions: 10 mg/kg oral
Protocol: After completely dissolved, the duloxetine was administered orally. The volume of administration was 5 ml/kg.
10 mg/kg compound Ic-1:17 mg of compound Ic-1 was weighed, dissolved in saline and diluted to 8.5 mL. After completely dissolved, the compound Ic-1 was administered orally. The volume of administration was 5 ml/kg.
Male C57BL/6 mice weighed 18-22 g were selected at the beginning of experiment. Each cage had 4 mice which were allowed to feed and drink water freely. Each experimental group had 12 mice, and the experimental mice were labeled by tail labeling method.
Day 0: At 4:30 pm, the mice were put in a plexiglass box with stainless steel mesh, and then the plexiglass box was put in cold environment (4±2° C.) overnight. The mice were allowed to feed freely and drink, and agar was used to replace water.
Day 1: At 10:00 am, the mice were delivered to room temperature (24±2° C.) environment for 30 min, and then the mice were delivered to cold environment for 30 min. The above steps were repeated until 4:[…], and the mice were put in cold environment overnight.
Day 2: the operation on day 1 was repeated.
Day 3: the mice were taken out from cold environment at 10:00 am.
The compounds were administered orally according to the schedule of experiment, and the dosage was 10 mg/kg.
On the fourth day after modeling, the pre-administration mechanical allodynia test was performed on the animals. Animals with PWT value greater than 0.5 g were excluded and were not used for experiments. On the fifth day after modeling, the animals were tested for mechanical allodynia at 0.5 h, 1 h, and 2 h after the administration of compounds. […]
During the test, rapid withdrawal of animal claw was recorded as pain response. When the test fiber was removed from animal skin, the withdrawal of animal claw was also recorded as pain response. If animal moved, the pain response was not recorded, and the test was repeated. […] The maximum strength of tested fiber was 4.17 (1.4 g). • The test results were recorded in Table 4 below, wherein pain response was recorded as X and no pain response was recorded as O. […]

IC50 (TRPA1; HEK293 cells stably expressing TRPA1, AITC-induced current at +100 mV, read-out: IC50 (μM) on TRPA1 in the patch clamp detection test) [µM]	Structure (SMILES)	PWT (g) Mean ± SD (C57BL/6 mice, ICS model; 0.5 h after administration) [g]	PWT (g) Mean ± SD (C57BL/6 mice, ICS model; 1 h after administration) [g]	PWT (g) Mean ± SD (C57BL/6 mice, ICS model; 2 h after administration) [g]	IC50 (TRPA1; read-out: IC50 on TRPA1) [µM]
1 to 5	CNCC[C@H](Oc1cccc2ccoc12)c1cccs1 [Compound IC-1, (S)-3-(benzofuran-7-yloxy)-N-methyl-3-(thiophen-2-yl)propyl-1-amine]				
	CNCC[C@H](Oc1cccc2ccccc12)c1cccs1 [Duloxetine (S configuration), Duloxetine]	0.416 ± 0.140	0.648 ± 0.155	0.530 ± 0.235	24.7
